Data as given in US11220498B2, “Neuroprotective aminothiazoles” (priority 2018, dated 2022).

Key:
[1] = test system: SUMOylation of His-RanGap; assay: HTRF assay measuring increase in SUMOylation of His-RanGap; type: biochemical; settings: His-RanGap substrate, SUMO-E1 (SAE), SUMO-E2 (UBC9), GST-SUMO; HTRF ratio 665/620; 30 min at room temperature; triplicate
Method: Assay measuring increase in SUMOylation of His-RanGap. We utilized an HTRF assay containing SUMO-E1 (SAE), SUMO-E2 (UBC9), GST-SUMO and His-RanGap, a known SUMO substrate, as well as the respective fluorescent antibodies. The assay was run in 1536-well plate format and the selected activators were chosen based on their ability to increase the FRET signal over a baseline level. In 1536-well white plates, 2 μl of phosphate buffered saline (assay buffer) was dispensed into columns 1 and 2, and 2 μl of Mixture 1 (37.5 nM E1 and 100 nM His-RanGap-1) in assay buffer (50 mM Tris-HCl pH 7.4, 0.3 mM DTT, 10 mM MgCl2, 0.005% Tween-20), was dispensed into columns 3-48. Using a pintool, 70 nl of 2 mM compounds in DMSO was dispensed to columns 5-48 and 70 nl of DMSO was dispensed to columns 1-4. Using the Thermo Scientific MultiDrop Combi, 2 μL of Mixture 2 (20 mM ATP, 12.5 nM E2 and 30 nM GST-SUMO in buffer) was dispensed to all wells and incubated for 30 min. at room temperature followed by 1 μl of 500 mM KF. Plates were read on a PheraStar in a HTRF mode (Ex: 337 nm; Em: 620/665 nm). The ratio of fluorescence 665 over 620 was utilized as a readout of the assay. Increase in SUMOylation was calculated by comparison to baseline level. Measurements were done in triplicate.

CSM14.1 cells = assay: Rescue of CSM14.1 neurons from thapsigargin-induced cell death (ATPlite cell viability); type: cell-based; settings: Rattus norvegicus, Neuron, 10 μM compound, 2 h preincubation, 15 μM TG for 20 h, read-out: % CSM14.1 Cell Viability after treatment with 15 μM TG in Presence of 10 μM compound
From the text: Ability of compounds to rescue CSM14.1 neurons from thapsigargin-induced cell death. To assess the ability of the compounds to rescue neurons from ER stress-induced cell death, the rat striatel neuroprogenitor cell line CSM14.1 was used. Endoplasmic reticulum (ER) stress has been established as the major cause of neuronal loss in stroke, ischemia, and neurodegeneration (Tajiri, S.; Oyadomari, S.; Yano, S.; Morioka, M.; Gotoh, T.; Hamada, J. I.; Ushio, Y.; Mori, M. Cell Death Differ. 2004, 11, 403-415; Kohno, K.; Higuchi, T.; Ohta, S.; Kumon, Y.; Sakaki, S. Neurosci. Lett. 1997, 224, 17-20; ladecola, C.; Zhang, F.; Casey, R.; Nagayama, M.; Ross, M. E. J. Neurosci. 1997, 17, 9157-9164). Thus, we used the known ER stress-causing agent thapsigargin (TG) to model the compromised state in vitro. TG causes 100% cell death in most cases, and compounds were assessed for neuroprotection by measuring cell viability when dosed at 10 μM. CSM14.1 cells were recovered from cultures by trypsinization and plated in 96-well plates and incubated overnight at 32° C. 5 μl of test compound was added to achieve a final concentration of […]. Salubrinal and DMSO without compound were used as positive and negative controls, respectively. After 2 h of preincubation, TG-containing DMEM was added to give a final concentration of 15 μM and incubated for an additional 20 h. Cell viability was assessed by a cellular ATP content assay (ATPlite, PerkinElmer Life Sciences).

BGMK cells = assay: cells; type: cell-based; settings: read-out: % BGMK Cell Viability after treatment with 15 μM TG in Presence of 10 μM compound
From the text: Ability of compounds to rescue BGMK cells from thapsigargin-induced cell death. To assess an orthogonal cell line and further validate the ability of SUMOylation activators to rescue varied cell types, the compounds were also profiled for cytoprotection in BGMK cells. Again, we used the known ER stress-causing agent thapsigargin (TG) to model the compromised state in vitro. BGMKs were subcultured at 1.2×10^4 cells/ml. Wells treated with compound were done so for 2 hr. […] After treatment, all cells were washed and fed fresh DMEM complete media and CCK-8 development vehicle, incubated for 2 hr, and absorbance was measured to assess viability. Controls were DMSO (0% viability) and Salubrinal (47% viability).

Structure (SMILES) | % INCREASE IN SUMOylation over endogenous baseline level [1] | viability at 10 µM (CSM14.1 cells) [%] | viability at 10 µM (BGMK cells) [%]
O=C(Nc1nc(-c2ccccn2)cs1)c1ccc(S(=O)(=O)N2CCCCC2)cc1 [Compound C1, 4-(1-Piperidinylsulfonyl)-N-[4-(2-pyridinyl)-2-thiazolyl]-benzamide] | D (D = 40%-60% increase in SUMOylation over baseline levels) | 40 to 50 | 
CC(=O)Nc1ccc(C(=O)Nc2nc(-c3cccnc3)cs2)cc1 [Compound C2, 4-(Acetylamino)-N-[4-(3-pyridinyl)-2-thiazolyl]-benzamide] | A (A = 10%-20% increase) |  | 
O=C(Nc1nc(-c2ccccn2)cs1)c1ccc2c(c1)OCCO2 [Compound C3, N-(4-(Pyridin-2-yl)thiazol-2-yl)-2,3-dihydrobenzo[b][1,4]dioxine-6-carboxamide] | A (A = 10%-20% increase) |  | 51 to 60
O=C(Nc1nc(-c2ccccn2)cs1)C1COc2ccccc2O1 (stereo not shown) [Compound C4, N-(4-(Pyridin-2-yl)thiazol-2-yl)-2,3-dihydrobenzo[b][1,4]dioxine-2-carboxamide] | D (D = 40%-60% increase in SUMOylation over baseline levels) | 61 to 70 | 61 to 85
O=C(Nc1nc(-c2ccccn2)cs1)c1ccc(Cl)s1 [Compound C5, 5-Chloro-N-(4-(pyridin-2-yl)thiazol-2-yl)thiophene-2-carboxamide] | B (B = 21%-30% increase) |  | 41 to 50
O=C(Nc1nc(-c2ccccn2)cs1)c1ccc(Br)s1 [Compound C6, 5-Bromo-N-(4-(pyridin-2-yl)thiazol-2-yl)thiophene-2-carboxamide] | C (C = 31%-40% increase) | 61 to 70 | 61 to 85
